Columns and labels:
MCF-10A cells = assay: Cell cycle analysis with PI (flow cytometry); format: cell-based, human; settings: 0.1 and 1 µM, 24, 48, 72 h
Protocol: (§1) Cells were seeded onto 6-well plates and treated with A-1 (0.1 µM and 1 µM) for 24, 48, and 72 h. Cells incubated with 0.01% DMSO (ATCC; Manassas, VA, USA) were used as a control. Then, MDA-MB-231 and MCF-10A cells were collected by trypsinization; MDA-MB-436 cells were collected by scraping. Treated cells were fixed with ice-cold 70% ethanol while vortexing and incubated for 1 h in 4 °C. Then, cells were washed with cold 1X DPBS, treated with 1 mg/mL of ribonuclease A, and incubated for 30 min at 37 °C. The cells were then stained with 10 µg/mL of propidium iodide (PI), incubated for 30 min at 37 °C, and analyzed by flow cytometry using BD FACS Aria Sorter (BD Biosciences, Franklin Lakes, NJ, USA). Data were analyzed with Modfit LT 5.0 software (Verity Software House; Topsham, ME, USA). All experiments were performed in triplicates.

MDA-MB-231 cells [1] = assay: Cell cycle analysis with PI (flow cytometry); format: cell-based, human
Protocol: as §1

MDA-MB-436 cells [2] = assay: Cell cycle analysis with PI (flow cytometry); format: cell-based, human
Protocol: as §1

MDA-MB-231 cells [3] = assay: Annexin V-FITC/PI apoptosis assay (flow cytometry); format: cell-based, human; settings: mean ± SD
Protocol: (§2) Cells (10^6 cells/well) were seeded onto 6-well plates. After 24 h, the cells were incubated with A-1 (0.1 and 1 µM) for 24, 48, and 72 h. The control groups were incubated with 0.01% DMSO (ATCC; Manassas, VA, USA) for every hour. Then, cells were collected and washed twice with cold 1X PBS and stained with both annexin V-FITC and PI for 5 min at room temperature. The cells were analyzed by flow cytometry using BD FACS Aria (BD Biosciences, Franklin Lakes, NJ, USA). The positive controls (annexin negative/PI negative; annexin negative/PI positive; and annexin positive/PI negative) were used to set up compensation and set quadrants. The early apoptotic cells were measured in the quadrant of annexin V positive/PI negative and late apoptotic/necrotic cells were measured in the quadrant of annexin positive/PI positive. Data were analyzed with FlowJo™ v10.8 Software (BD Life Sciences; Ashland, OR, USA). All experiments were performed in triplicates.

MDA-MB-436 cells [4] = assay: Annexin V-FITC/PI apoptosis assay (flow cytometry); format: cell-based, human; settings: mean ± SD
Protocol: as §2

[5] = system: caspase-8, 9, PARP, and survivin proteins in MDA-MB-231 cells; assay: Western blot of caspase-8, caspase-9, PARP and survivin; format: cell-based, human; settings: 0.1 and 1 µM, 24 h
Protocol: (§3) MDA-MB-231 and MDA-MB-436 cells (10^7 and 5 × 10^6 cells/3 mL medium, respectively) were seeded in a 6-well cell culture plate. After 24 h, the cells were treated with A-1 (0.1 µM and 1 µM) for 24 h. Cells treated with 0.01% DMSO (ATCC; Manassas, VA, USA) were included as a control. Protein extracts were prepared using RIPA Lysis and Extraction Buffer plus Halt™ Protease Inhibitor Cocktail (Thermo Fisher Scientific; Waltham, MA, USA). The protein concentration was measured using the Bradford assay (Thermo Fisher Scientific; Waltham, MA, USA). Protein extracts (60 µg) with 5 µL of 2X Novex™ Tris-Glycine SDS Sample Buffer (Thermo Fisher Scientific; Waltham, MA, USA) and 1% dithiothreitol (DTT; Thermo Fisher Scientific; Waltham, MA, USA) were denatured and separated by electrophoresis using SDS-PAGE in 10% Tris-Glycine pre-cast gel (Novex™ WedgeWell™, Thermo Fisher Scientific; Waltham, MA, USA). The gel was run in 1X Novex™ Tris-Glycine SDS running buffer (Thermo Fisher Scientific; Waltham, MA, USA) at a constant 125 voltage for 90 min. The proteins were transferred into Trans-Blot Turbo Mini 0.2 µm PVDF membranes (Bio-Rad Laboratories; Hercules, CA, USA) using the Trans Blot Turbo System (Bio-Rad Laboratories; Hercules, CA, USA) at 1.3 amp and up to 25 volts for 7 min. After the membranes dried completely, they were incubated in 1X Tris Buffered Saline (TBS; Bio-Rad; Hercules, CA, USA) for 5 min at room temperature. Then, the membranes were blocked with 5% non-fat dry milk in 1X TBS containing 1% Tween 20 (TBST; Bio-Rad; Hercules, CA, USA) for 1 h at room temperature. The membranes were incubated with specific primary antibodies at 4 °C overnight. The primary antibodies and dilutions included rabbit anti-caspase-8 (D35G2) mAb (1:500; Cell Signaling Technology; Danvers, MA, USA), rabbit anti-PARP mAb (1:500; Cell Signaling Technology; Danvers, MA, USA), rabbit anti-human survivin polyclonal antibody (0.5 µg/mL; R&D Systems; Minneapolis, MN, USA), mouse anti-human caspase-9 mAb (1 µg/mL; R&D Systems; Minneapolis, MN, USA), mouse anti-vinculin antibody (2 µg/mL; R&D Systems; Minneapolis, MN, USA), and mouse anti-human GAPDH antibody (0.05 µg/mL; R&D Systems; Minneapolis, MN, USA). Afterwards, the membranes were incubated with HRP-conjugated goat anti-rabbit IgG secondary antibody (1:2000; Cell Signaling Technology; Danvers, MA, USA) and HRP-conjugated AffiniPure goat anti-mouse IgG secondary antibody (1:50,000; Jackson Immunoresearch Laboratories; West Grove, PA, USA) for 1 h at room temperature. The membranes were washed with 1X TBST and then incubated with SuperSignal™ West Pico PLUS Chemiluminescent Substrate (Thermo Fisher Scientific; Waltham, MA, USA). The membranes were scanned and analyzed using the Li-COR Odyssey® Fc Imaging System (LI-COR Biosciences; Lincoln, NE, USA).

[6] = system: caspase-8, 9, PARP, and survivin proteins in MDA-MB-436 cells; assay: as above; format: cell-based, human; settings: 0.1 and 1 µM, 24 h
Protocol: as §3

[7] = system: UDP-glucuronosyltransferases; settings: in vitro metabolism; cited from earlier work

Compound: CC(C)/C=C/c1c(O)cc(/C=C/c2ccc(O)c(O)c2)cc1O [A-1, arachidin-1]
- change in cell cycle phase distribution (MCF-10A cells): no significant changes in the percentage of cells at different phases
- percentage of cells in G2-M phase (MDA-MB-231 cells [1]; 0.1 µM, 72 h): 27.73 ± 4.33%
- percentage of cells in G2-M phase (MDA-MB-231 cells [1]; 1 µM, 24 h): ~31.73 ± 4.00%
- percentage of cells in G2-M phase (MDA-MB-231 cells [1]; 1 µM, 48 h): ~25.13 ± 0.89%
- percentage of cells in G2-M phase (MDA-MB-231 cells [1]; 1 µM, 72 h): 31.28 ± 3.45%
- cell cycle effect (MDA-MB-231 cells [1]; 0.1 and 1 µM): cell arrest in the G2-M phase
- percentage of cells in G2-M phase (MDA-MB-436 cells [2]; 0.1 µM, 48 h): 25.82 ± 2.73%
- percentage of cells in G2-M phase (MDA-MB-436 cells [2]; 0.1 µM, 72 h): 38.89 ± 0.08%
- percentage of cells in G2-M phase (MDA-MB-436 cells [2]; 1 µM, 24 h): 23.97 ± 0.57%
- percentage of cells in G2-M phase (MDA-MB-436 cells [2]; 1 µM, 48 h): 31.07 ± 0.29%
- percentage of cells in G2-M phase (MDA-MB-436 cells [2]; 1 µM, 72 h): 36.88 ± 1.42%
- cell cycle effect (MDA-MB-436 cells [2]; 0.1 and 1 µM): increased the percentage of cells in the G2-M phase
- percentage of cells in early apoptosis (MDA-MB-231 cells [3]; 0.1 µM, 24 h): 21.29 ± 1.94%
- percentage of cells in early apoptosis (MDA-MB-231 cells [3]; 0.1 µM, 48 h): 63.47 ± 0.90%
- percentage of cells in early apoptosis (MDA-MB-231 cells [3]; 0.1 µM, 72 h): 53.1 ± 2.50%
- percentage of cells in early apoptosis (MDA-MB-231 cells [3]; 1 µM, 24 h): 24.76 ± 1.65%
- percentage of cells in early apoptosis (MDA-MB-231 cells [3]; 1 µM, 48 h): 68.67 ± 0.76%
- percentage of cells in early apoptosis (MDA-MB-231 cells [3]; 1 µM, 72 h): 51.77 ± 2.37%
- percentage of early apoptotic cells (MDA-MB-436 cells [4]; 0.1 µM, 24 h): 35.76 ± 4.10%
- percentage of early apoptotic cells (MDA-MB-436 cells [4]; 0.1 µM, 48 h): 44.90 ± 0.89%
- percentage of early apoptotic cells (MDA-MB-436 cells [4]; 0.1 µM, 72 h): 45.73 ± 0.96%
- percentage of early apoptotic cells (MDA-MB-436 cells [4]; 1 µM, 24 h): 35.27 ± 3.78%
- percentage of early apoptotic cells (MDA-MB-436 cells [4]; 1 µM, 48 h): 46.11 ± 3.40%
- percentage of early apoptotic cells (MDA-MB-436 cells [4]; 1 µM, 72 h): 38.77 ± 2.59%
- cleaved PARP level [5]: only slightly increased and not statistically significant
- cleaved caspase-9 level [5]: only significantly increased in A-1 1 µM
- full-length PARP protein level [5]: significantly decreased levels
- full-length caspase-8 level [5]: no significant change
- survivin expression [5]: downregulated
- cleaved PARP level [6]: significantly increased
- cleaved caspase-9 level [6]: significantly increased
- full-length caspase-8 level [6]: no significant change
- survivin expression [6]: downregulated
- glucuronidated products compared to non-prenylated analogs piceatannol and RES [7]: lower glucuronidated products

Reference: paper PMC8835363, “Arachidin-1, a Prenylated Stilbenoid from Peanut, Induces Apoptosis in Triple-Negative Breast Cancer Cells” (International Journal of Molecular Sciences, 2022)
